According to publication PMC12526278, “Origanum vulgare subsp. virens (Hoffmanns. & Link) Bonnier & Layens Essential Oils: Chemotypes and Bioactivity as Antifungal, Antifeeding and Enzyme Inhibitors” (Plants, 2025):
≈ marks a conversion by molar mass, not a printed value.

Key:
[1] = target: T1, β-glucosidase (β-GLU) from almonds; experiment: 4-nitrophenol release, absorbance […] nm; assay type: biochemical, Prunus dulcis; details: 4-nitrophenyl beta-D-glucopyranoside, 0.1 M phosphate pH 7.0, 37 °C, 20 min
T1 construct: gene beta-glucosidase; commercial enzyme from almonds (Sigma-Aldrich)

[2] = target: T2, AChE from Electrophorus electricus (Electrophorus electricus, UniProt O42275); experiment: Ellman assay, absorbance […] nm; assay type: biochemical; details: acetylthiocholine iodide substrate with DTNB, phosphate buffer; no significant inhibition
T2 sequence (O42275 24-633): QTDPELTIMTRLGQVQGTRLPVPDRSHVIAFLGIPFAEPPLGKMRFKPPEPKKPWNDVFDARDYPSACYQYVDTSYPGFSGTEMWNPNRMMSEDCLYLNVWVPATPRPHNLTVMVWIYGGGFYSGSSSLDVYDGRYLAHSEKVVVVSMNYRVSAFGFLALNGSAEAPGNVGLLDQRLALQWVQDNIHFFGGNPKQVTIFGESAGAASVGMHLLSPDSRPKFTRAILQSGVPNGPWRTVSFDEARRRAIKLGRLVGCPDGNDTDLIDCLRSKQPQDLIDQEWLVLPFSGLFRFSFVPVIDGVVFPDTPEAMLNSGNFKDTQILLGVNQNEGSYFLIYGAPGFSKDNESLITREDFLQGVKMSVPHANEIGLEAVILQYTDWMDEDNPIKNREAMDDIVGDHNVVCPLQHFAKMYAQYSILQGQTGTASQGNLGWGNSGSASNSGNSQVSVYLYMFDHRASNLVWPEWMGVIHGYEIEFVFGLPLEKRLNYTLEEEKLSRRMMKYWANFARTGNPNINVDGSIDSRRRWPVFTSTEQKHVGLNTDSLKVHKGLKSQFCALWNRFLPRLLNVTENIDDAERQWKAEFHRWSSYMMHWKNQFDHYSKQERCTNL

[3] = system: T3, α-glucosidase (α-GLU) extracted from Saccharomyces cerevisiae; experiment: 4-nitrophenol release, absorbance […] nm; assay type: biochemical; details: 4-nitrophenyl alpha-D-glucopyranoside (5 mM solution), 0.1 M phosphate pH 7.0, 37 °C, 20 min; unreliable (far above the tested range, extrapolated)
T3 construct: gene MAL12; commercial yeast enzyme (Sigma-Aldrich)

[4] = target: T2, AChE from Electrophorus electricus; experiment: biochemical
[5] = target: T2, AChE from Electrophorus electricus; experiment: Ellman assay, absorbance […] nm; assay type: biochemical; details: acetylthiocholine iodide substrate with DTNB, phosphate buffer, 5 min preincubation; unreliable (above the tested range, extrapolated)
[6] = target: T3, α-glucosidase (α-GLU) extracted from Saccharomyces cerevisiae; experiment: 4-nitrophenol release, absorbance […] nm; assay type: biochemical; details: 4-nitrophenyl alpha-D-glucopyranoside (5 mM solution), 0.1 M phosphate pH 7.0, 37 °C, 20 min

For OC[C@H]1NC[C@H](O)[C@@H](O)[C@@H]1O [1-DNJ], the “β-GLU / IC50” value [1] was 36 ± 1 µg/mL.
In the case of CC1=CCC(C(C)C)=CC1 [γ-terpinene], the “Ellman assay, absorbance 405 nm” value [2] is reported as “did not show significant AChE inhibition under our experimental conditions”.
Cc1ccc(C(C)C)cc1O [Carvacrol] was tested, and the “α-GLU / IC50” value [3] was 109340 ± 23120 µg/mL and the IC50 [4] was 180 µM.
In the case of Cc1ccc(C(C)C)c(O)c1 [Thymol], the “IC50” value [5] is reported as 2531 ± 515 µg/mL (≈ 16.8 mM) and the “α-GLU / IC50” value [6] is reported as 304 ± 25 µg/mL.
